These results are taken from patent publication US20240398843A1, “GLYCYRRHIZIN-BRANCHED POLYETHYLENE GLYCOL CONJUGATE FOR TREATING CANCER” (IUCF-HYU (INDUSTRY-UNIVERSITY COOPERATION FOUNDATION …, priority 2021, published 2024).

Data set [1] deals with HepG2 cells. Description: Apoptosis assay (annexin V/PI, FACS). In kind it is cell-based. The settings on record: 24 hours. The method, then: HepG2 cells were seeded in a 60 mm well plate at 2×10^5 cells/well and cultured (3 wells for each treatment group). The cells were classified as follows, treated with corresponding materials, and cultured for 24 hours: Control (con; untreated group), GL-treated groups (250, 500, and 1,000 μg/mL), bPEG-GL-treated groups (900, 1,800, and 3,600 μg/mL; GL equivalent concentrations of 250, 500, and 1,000 μg/mL), and bPEG-treated groups (1,300 and 2,600 μg/mL; bPEG-GL equivalent concentrations of 1,800 and 3,600 μg/mL).
After the culture, the medium was aspirated to remove the treated material, and the cells were washed twice with a cell-staining buffer. After the cells were recovered and counted, 5×10^5 cells were obtained for each experimental group. The cell culture solution was centrifuged to remove the supernatant, and then the cells were suspended in 100 μL of annexin V-binding buffer. The cell suspension was transferred to an FACS tube, and 5 μL of annexin V and 10 μL of PI solution were added. Subsequently, the FACS tube was left in a dark room at room temperature for 15 minutes. 400 μL of PBS was added to each FACS tube and analyzed by FACS in appropriate settings.

The nature of data set [2]: Dynamic light scattering (DLS) particle size, incl. shielding effect check in 10% FBS DW. The settings on record: for DLS size, first listed population / DLS size, second listed population / proportion of first listed population / proportion of second listed population: 10% FBS DW. In kind it is physicochemical. The text has this:
When bPEG was conjugated, a stabilized nano size of approximately 300 nm was observed (FIG. 6).

Data set [3] can be described thus: In vivo pharmacokinetics (plasma, HPLC). The settings on record: intravenous, mouse, tail vein, 5 mg/kg GL. The method, then: 5 mg/kg of GL or 18 mg/kg of bPEG-GL (a GL equivalent amount of the GL-administered group) was injected into the tail vein of a mouse. The mouse was sacrificed at a designated time point after injection and blood was collected through cardiac puncture. The blood collection times were as follows: 1, 3, 5, 10, 30, 60, 120, 150, 360, 720, 1080, and 1440 min (n=4 at each time). The collected blood was centrifuged at 3000 rpm and 4° C. for 20 minutes. Only the plasma, which is the supernatant, was recovered, and 50 μL of the plasma and 100 μL of methyl alcohol (HPLC grade) were mixed and vortexed for 10 minutes. Afterward, the resulting product was centrifuged at 10000 g for 10 minutes. 100 μL of the supernatant was mixed with 900 μL of a mobile phase, and the resulting mixture was filtered using a 0.45 μm syringe filter.
The mobile phase consisted of methanol, acetonitrile, water, and acetic acid in a ratio of 55:23.7:19.2:0.68. The standard curve required for HPLC analysis was prepared as follows: each of 1 mg of GL and 1.8 mg of bPEG-GL was dissolved in 1 mL of the mouse serum. […] HPLC was performed on the blood samples and various concentrations of the GL/serum solutions using a C8 reverse column: flow rate: 1 mL/min; column temperature: 35° C.; UV absorbance: 251 nm; and sample injection amount: 20 μL.

Data set [4] has as its system HepG2 cells. Description: Cell cycle arrest assay (PI, FACS). In kind it is cell-based. The settings on record: 24 hours. How it is done: HepG2 cells were seeded in a 6-well plate at 4×10^5 cells/well and cultured (3 wells for each treated group). The cells were classified into a control (con; untreated group), GL-treated groups (250 and 500 μg/mL), bPEG-GL-treated groups (GL equi 250 and 500 μg/mL), and a bPEG (GL equi 500 μg/mL)-treated group, treated with corresponding materials, and cultured for 24 hours. After the cells were recovered and counted, 1×10^6 cells were obtained for each experimental group. The cells were washed with PBS and fixed with 70% ethanol (cell membrane disruption). The cells were treated with 50 μL of ribonuclease A (100 μg/mL) and 200 μL of propidium iodide (PI; 50 μg/mL). The cells were washed and suspended in 500 μL of PBS, and then FACS was performed.

Data set [5] is described as follows: In vivo distribution (organ fluorescence, FOBI). The settings on record: FITC-labelled, tail vein, C57BL mouse. How it is done: Each of GL-FITC and bPEG-GL-FITC was dissolved in 1.5 mL of PBS at a concentration of 125 μg/mL based on GL. 100 μL each of the GL-FITC and bPEG-GL-FITC solutions was injected into the tail vein of a C57BL mouse. When a preset time (10 min, 30 min, 3 hr, 6 hr, and 24 hr) passed, the mice were sacrificed, organs were removed, and then fluorescence images were confirmed using FOBI.

Data set [6] deals with HepG2 cells. Description: Wound healing assay. In kind it is cell-based. The settings on record: HepG2, 500 μg/mL GL or GL equivalent, 24-hour culture. The method, then:
HepG2 cells were seeded in a 6-well plate at 3×10^5 cells/well and cultured until 100% confluence. When the well was filled with cells, a wound was made by drawing a line in the center of the well using a 200 μL micropipette tip. The cells were washed with PBS, and treated with each of 500 μg/mL of GL, 500 μg/mL of bPEG-GL, which is a GL equivalent concentration, and a bPEG solution at the same amount of bPEG that dissolved in 500 μg/mL of bPEG-GL. After 24-hour culture, the width of the wound was confirmed. […] The cell migration rate was calculated according to Equation 1.
Rate of cell migration(RM)=(Wi−Wf)/t [Equation 1] • (Wi=initial wound width, Wf=final wound width, t=duration of migration)

In another data set the test system is red blood cells. Description: In vitro blood hemolysis. The settings on record: 0.2 to 1 mg/mL, 37° C., 1 hour. The method, then: 1 to 2 mL of blood was put into a 2 mL tube, filled with PBS, and centrifuged at 3,000 rpm for 2 minutes. The supernatant was removed, the vial was filled again with PBS, and centrifuged, and this process was repeated 2 to 3 times. 20 μL of a red blood pellet was dispensed into a 1.5 mL tube. DW, for example, 80% DW/PBS, 60% DW/PBS, 40% DW/PBS, 20% DW/PBS, or PBS was added to a control without separate material treatment, and the volumes was adjusted to 1.5 mL. In the experimental group, 1 mL of a bPEG-GL (3.6 mg/mL, 2.88 mg/mL, 2.16 mg/mL, 1.44 mg/mL, 0.72 mg/mL; GL equivalent concentration) solution was added to each tube.
The tubes were left in a 37° C. water bath for 1 hour and then centrifuged at 800 rpm for 5 minutes.

Regarding `CC1(C)[C@@H](O[C@H]2O[C@H](C(=O)O)[C@@H](O)[C@H](O)[C@H]2O[C@@H]2O[C@H](C(=O)O)[C@@H](O)[C@H](O)[C@H]2O)CC[C@]2(C)[C@H]3C(=O)C=C4[C@@H]5C[C@@](C)(C(=O)O)CC[C@]5(C)CC[C@@]4(C)[C@]3(C)CC[C@@H]12` [GL, Glycyrrhizin], the “proportion of apoptotic cells” value in the data set with HepG2 cells [1] (HepG2, GL equivalent concentration of 500 μg/mL) was found to be 9.63%. The “proportion of apoptotic cells” value in the data set with HepG2 cells [1] (HepG2, GL equivalent concentration of 1 mg/mL) was 10.86%. In addition, the “size by dynamic light scattering particle size analyzer” value in data set [2] came out at 50 nm. For the same compound, in data set [2] (30 min), the “DLS size, first listed population” value was determined as 159.7 nm; the “DLS size, second listed population” value was 10.38 nm; the “proportion of first listed population” value is reported as 75.50%; the “proportion of second listed population” value was found to be 24.15%. Besides, in data set [2] (1 h), the “DLS size, first listed population” value is reported as 54.5 nm; the “DLS size, second listed population” value amounted to 295.03 nm; the “proportion of first listed population” value turned out to be 47.83%; the “proportion of second listed population” value stood at 31.06%. For the same compound, the “size of newly observed particles” value in data set [2] (DW with 10% FBS, after 1 hour) is “approximately 300 nm”. In data set [3], the half-life was approximately 4 min. Moreover, the “cell cycle phase compared to control” value in the data set with HepG2 cells [4] (HepG2, 250 and 500 μg/mL (GL equivalent)) is “cell cycles remained in the G0/G1 phase compared to the control”. The “concentration dependence of cell cycle arrest” value with HepG2 cells [4] (HepG2, 500 vs 250 μg/mL) is on record as “higher cell cycle arrest effects at 500 μg/mL, compared to that at 250 μg/mL”. Further, the organ fluorescence entry in data set [5] (10 minutes after injection) was “fluorescence was visible in the liver and kidney”. Besides, in data set [5] (later time points up to 24 hr), the organ fluorescence entry is on record as “no fluorescence was observed in the corresponding organs at later time points”. The “width of wound / cell migration” value in the data set on HepG2 cells [6] is on record as “inhibitory effect on cell migration”. In addition, the “toxicity to blood cells (hemolysis)” value with red blood cells was “did not exhibit toxicity to blood cells”.
